Measurements: publication PMC6268294, “Synthesis of Chalcones with Anticancer Activities” (Molecules, 2012)
Converted amounts (≈) assume the structure as drawn. Read-outs that look alike come from different tables or passages of the source.

How the values were obtained:
[1] = system: human lung adenocarcinoma cell line A549; assay: MTT cell viability assay, A549; assay type: cell-based; settings: 24 h treatment
Description: (§1) A549, PC3, MCF-7, HT-29, WRL68 and MCF-7 cells were obtained from the ATTC (Rockville, MD, USA) and grown in RPMI-1640 medium, 10% fetal bovine serum (FBS) and 1% pen-strep, in humidified conditions at 5% CO2 and 37 °C. The different cell lines mentioned above were used to determine the inhibitory effects of compounds on cell growth using the MTT assay. This colorimetric assay is based on the conversion of the yellow tetrazolium bromide (MTT) to a purple formazan derivative by mitochondrial succinate dehydrogenase in viable cells. Cells were seeded in 96-well plate and incubated for 24 h at 37 °C with 5% CO2 saturation. After incubation, the cells were treated with different concentration of compounds and incubated for another 24 h. After 24 h of drug treatment, 20 µL of MTT solution at 5 mg/mL was added and incubated for 4 h. Dimethyl sulfoxide (DMSO) in volume of 100 µL is added into each well to dissolve the purple formazan formed. The colorimetric assay is measured and recorded at absorbance of 570 nm.

[2] = system: human prostate cancer cell line PC3; assay: MTT cell viability assay, PC3; assay type: cell-based; settings: 24 h treatment
Description: as §1

[3] = system: human breast adenocarcinoma cell line MCF-7; assay: MTT cell viability assay, MCF-7; assay type: cell-based; settings: MCF7, 24 h treatment
Description: as §1

[4] = system: human adenocarcinoma cell line HT-29 (colorectal cancer); assay: MTT cell viability assay, HT-29; assay type: cell-based; settings: 24 h treatment
Description: as §1

[5] = system: human normal liver cell line WRL-68; assay: MTT cell viability assay, WRL68; assay type: cell-based; settings: 24 h treatment
Description: as §1

[6] = system: MCF-7 (breast), A549 (lung), PC3 (prostate), HT-29 (colorectal) and WRL68 (liver); assay: MTT assay, summary over all five cell lines; assay type: cell-based, human; settings: for IC50: Homo sapiens, all five cell lines, read-out: IC50 in all cell lines
Description: as §1

[7] = system: MCF-7 cells; assay: Multiparametric high content screening (HCS) cytotoxicity/apoptosis assay; assay type: cell-based, human; settings: for cell (membrane) permeability / cytochrome c release / mitochondrial membrane potential / total nuclear intensity (Hoechst 33342 nuclear chromatin staining) / cell loss: MCF-7, compounds 2-6 µg/mL; for cell (membrane) permeability / cytochrome c release / mitochondrial membrane potential / total nuclear intensity (Hoechst 33342 nuclear chromatin staining): tamoxifen 0.04 µg/mL, vs control; for cell loss: data not shown; for apoptosis in MCF-7 cells: shown by multiparameter cytotoxicity assay and caspase-3/7, -8, -9 activities, p < 0.05
[8] = system: caspase-3/7 in MCF-7 cells; assay: Caspase-Glo-3/7 activity; assay type: cell-based, human; settings: MCF-7, 24 h, highest concentration (6 µg/mL for 1); control 30,140 RLU
Description: (§2) Due to the observation of significant cytotoxicity of selected compounds towards MCF-7 cells, the following analyses were done on them only. Cells were treated with compound 1 (1A- 3 µg/mL; 1B- 6 µg/mL), 23 (23A- 3 µg/mL; 23B- 6 µg/mL), 25 (25A- 2 µg/mL; 25B- 4 µg/mL) and 5 (5A- 3 µg/mL; 5B- 6 µg/mL).
(§3) Activity of cellular caspases was measured using the Caspase-Glo-9, Caspase-Glo-3/7 and Caspase-Glo-8 assay reagents (Promega), according to the manufacturer's instructions. The assays provide a luminogenic caspase-3/caspase-7 or caspase-8 or caspase-9 substrate, respectively, in a buffer system optimized for caspase activity measurement in cell lysates. The luciferase signal generated is proportional to the amount of caspase activity present. MCF-7 cells have no caspase-3 activity due to functional deletion of the CASP-3 gene. Therefore, the activity measured in this test is that of caspase-7. Briefly, cells were plated in opaque 96-well plates in triplicate and treated with […]. After 24 h treatment with compounds 1, 23, 25 and 5 as mentioned before, the assay reagents were added to the plates at room temperature and incubated for 60 min, and the luminescence was measured using a plate reader. All assays were done in triplicate, and means ± SD were calculated for each condition.

[9] = system: ROS in MCF-7 cells; assay: Intracellular ROS level (DCFDA); assay type: cell-based, human; settings: MCF-7, 24 h, high concentration (6 µg/mL; 25: 4 µg/mL), vs untreated control, p < 0.05
Description: as §2
The production of ROS was estimated by fluorescence using the redox-sensitive fluorescent probe DCFDA (Sigma). The oxidation of DCFDA by ROS converts the molecule to 2′,7′-dichlorodihydrofluorescein (DCF), which is highly fluorescent. Thus, ROS production by stimulated cells causes an increase in the fluorescence signal over time. ROS assays were performed as previously described (13). Briefly, the MCF-7 cells were seeded in 96-well plates (5 × 10^4 cells/well) and allowed to attach for 24 h. After 24 h treatment with compounds 1, 23, 25 and 5 as mentioned before, the cells were washed three times with PBS and incubated for 60 min with […] DCFDA at room temperature. Again the wells were washed with PBS. Fresh PBS was added (100 μL/well) and DCF fluorescence was detected using a Tecan Infinite M200 fluorescence microplate reader at excitation and emission wavelengths of 485 and 528 nm, respectively. The fluorescence intensity unit of treatments was compared with control.

[10] = system: caspase-8 in MCF-7 cells; assay: Caspase-Glo-8 activity; assay type: cell-based, human; settings: MCF-7, 24 h, highest concentrations (6 µg/mL; 25: 4 µg/mL); control printed 50892 RLU; p < 0.05
Description: as §2, §3

For O=C(/C=C/c1ccccc1)c1ccccc1 [Compound 1, 1,3-Diphenylpropenone], the IC50 [1] was 16.8 ± 1.08 µg/mL (≈ 80.5 µM), the IC50 [2] was 9.11 ± 0.9 µg/mL (≈ 43.7 µM) and the IC50 [3] was 6.88 ± 0.219 µg/mL (≈ 33 µM). It also gave an IC50 [4] of 10.1 ± 1.01 µg/mL (≈ 48.5 µM), an IC50 [5] of 10.6 ± 0.89 µg/mL (≈ 50.7 µM) and an IC50 ([6]; MTT) of less than 20 µg/mL. The “cytotoxic effect in words” value ([6]; all cell lines, MTT) was “high cytotoxicity”, the “cell (membrane) permeability” value [7] was “increased cell permeability” and the cytochrome c release [7] was “cytochrome c release from mitochondria”. The mitochondrial membrane potential [7] was “loss of mitochondrial membrane potential”, the “total nuclear intensity (Hoechst 33342 nuclear chromatin staining)” value (“total nuclear intensity” below) [7] was “increased total nuclear intensity” and the cell loss [7] was “statistically significant cell loss”. The “apoptosis in MCF-7 cells” value [7] was “capable in eliciting apoptosis” and the “caspase-3/7 activity at highest concentration” value [8] was 210430 RLU.
With O=C(/C=C/c1ccccc1Cl)c1ccccc1 [Compound 5, 3-(2-Chlorophenyl)-1-phenylpropenone] the IC50 [1] was 19.9 ± 1.66 µg/mL (≈ 82.2 µM), the IC50 [2] was 13.8 ± 1.2 µg/mL (≈ 57 µM) and the IC50 [3] was 7.99 ± 0.81 µg/mL (≈ 32.9 µM). For the same compound, the IC50 [4] was 13.2 ± 1.2 µg/mL (≈ 54.6 µM), the IC50 [5] was 11.5 ± 1.1 µg/mL (≈ 47.2 µM) and the “cytotoxic effect in words” value [6] was “high cytotoxicity”. The IC50 ([6]; MTT) was less than 20 µg/mL, the “cell (membrane) permeability” value [7] was “increased cell permeability” and the cytochrome c release [7] was “cytochrome c release from mitochondria”. The mitochondrial membrane potential [7] was “loss of mitochondrial membrane potential”, the “total nuclear intensity” value [7] was “increased total nuclear intensity” and the cell loss [7] was “statistically significant cell loss”. For the same compound, the “apoptosis in MCF-7 cells” value [7] was “capable in eliciting apoptosis”, the “ROS increase at high concentration” value [9] was 2.7 fold and the melting point was 53 to 54 °C.
Work on Cc1ccc(C(=O)/C=C/c2ccccc2O)cc1 [Compound 23, 3-(2-Hydroxyphenyl)-1-p-tolylpropenone] yielded an IC50 [1] of 16.8 ± 1.76 µg/mL (≈ 70.5 µM), an IC50 [2] of 9.49 ± 0.7 µg/mL (≈ 39.8 µM) and an IC50 [3] of 6.87 ± 1.2 µg/mL (≈ 28.8 µM). The IC50 [4] was 13 ± 0.54 µg/mL (≈ 54.5 µM), the IC50 [5] was 9.53 ± 1.5 µg/mL (≈ 40 µM) and the “cytotoxic effect in words” value [6] was “high cytotoxicity”. For the same compound, the IC50 ([6]; MTT) was less than 20 µg/mL, the “cell (membrane) permeability” value [7] was “increased cell permeability” and the cytochrome c release [7] was “cytochrome c release from mitochondria”. For the same compound, the mitochondrial membrane potential [7] was “loss of mitochondrial membrane potential”, the “total nuclear intensity” value [7] was “increased total nuclear intensity” and the cell loss [7] was “statistically significant cell loss”. The “apoptosis in MCF-7 cells” value [7] was “capable in eliciting apoptosis”, the “caspase-8 activity at highest concentration” value [10] was 18,342 RLU and the melting point was 165 to 167 °C.
